From article PMC1177995 (Virology Journal, 2005)
Where a SMILES comes first, the peptide text is derived from it.

Columns and labels:
DENV strain New Guinea-2 = format: cell-based, dengue virus
WNV strain Egypt 101 = format: cell-based, West Nile virus; conditions: 100 μg/ml, compared to the original peptide

## CC[C@H](C)[C@H](NC(=O)[C@H](C)NC(=O)CNC(=O)[C@H](Cc1ccccc1)NC(=O)[C@@H](NC(=O)[C@H](CCC(N)=O)NC(=O)[C@H](Cc1c[nH]cn1)NC(=O)[C@H](CC(C)C)NC(=O)[C@H](C)NC(=O)[C@H](CCCCN)NC(=O)CNC(=O)[C@@H](NC(=O)[C@H](CO)NC(=O)[C@@H](NC(=O)[C@H](Cc1ccccc1)NC(=O)[C@@H](NC(=O)CNC(=O)CNC(=O)[C@H](CC(C)C)NC(=O)[C@H](CO)NC(=O)CNC(=O)[C@H](Cc1ccccc1)NC(=O)[C@H](CC(=O)O)NC(=O)[C@H](Cc1c[nH]c2ccccc12)NC(=O)[C@H](C)NC(=O)[C@@H](NC(=O)[C@H](CC(=O)O)NC(=O)CNC(=O)[C@H](CC(C)C)NC(=O)[C@@H](NC(=O)[C@H](C)NC(=O)[C@@H](N)CCSC)[C@@H](C)CC)[C@@H](C)O)C(C)C)[C@@H](C)O)[C@@H](C)CC)C(C)C)C(=O)N[C@@H](Cc1ccc(O)cc1)C(=O)O [DN59] (H-MAILGDTAWDFGSLGGVFTSIGKALHQVFGAIY-OH)
DENV strain New Guinea-2; at 20 μM, dose-response, mean +/- SD, triplicate
  maximum inhibitory activity against DENV: 100.0 +/- 0.5%

## VATWHLDWSREFPLFLMNS [Scrambled WN83]
WNV strain Egypt 101
  inhibitory effect of scrambled peptide against WNV: no inhibitory activity

## YFIDTSGAIWGASHLTGVLFDFMGIQGGAVLAK [Scrambled DN59]
DENV strain New Guinea-2; 100 μg/ml, compared to the original peptide
  inhibitory effect of scrambled peptide against DENV: no inhibitory activity
